In patent US20220048987A1, “METHOD OF TREATMENT TO PREVENT OR REVERSE AGE-ASSOCIATED INFLAMMATION, COGNITIVE DECLINE, AND NEURODEGENERATION” (The Board of Trustees of the Leland Stanford Junior …, priority 2020, published 2022):
Entries after “also recorded” stand apart in the source; their conditions may differ.

Tests used:
Assay type in all cases: in vivo, mouse
aged mice [1] = experiment: Spatial memory: Novel Object Location and Barnes Maze tasks; details: aged (20-22 mo) mice, 2.5 mg/kg/d, 6 weeks
Procedure: The Novel Object Location protocol was adopted from Wimmer et al. with minor modifications. Mice interacted with the chamber (a 16 in×16 in×15 in white box made from PVC) over the course of 2 days involving 1 habituation period, 3 training sessions, and 1 testing session. On the day of training (day 1) mice were placed in the middle of an empty chamber and given 5 minutes to explore the chamber. Mice were then placed in an independent holding cage for an inter-training interval (ITI) of 3 minutes. The objects used were a plastic bottle and seasoning shaker of similar size (3 in H×1 in W×1 in L). After the habituation session, the mice then underwent three 10-minute training sessions each with a 3 min ITI in between sessions. […] Animals were recorded a JVC Everio HD camcorder GZE200 and analyzed with Kinovea video tracking software. Exploration of the objects was defined as the amount of time mice were oriented toward an object with its nose within 1 cm of it, and was scored by an experimenter blind to experimental group. […]
After testing each mouse, the maze was cleaned with 70% ethanol and rotated clockwise after every mouse to avoid intra-maze odor or visual cues. All sessions were recorded using a JVC Everio HD camcorder GZ-E200 and analyzed with Kinovea video tracking software. […]

aged mice [2] = experiment: Nanostring transcriptomics of peritoneal macrophages from treated mice
Procedure: For gene expression analysis on the NanoString nCounter system, 100 ng of RNA was hybridized to a multiplexed nucleotide probe pool for 16 hours at 65° C. Enriched targets were purified and quantified using the nCounter MAX Analysis System. NanoString data analysis was performed by Canopy Biosciences (St. Louis, Mo.). Raw counts were normalized using the geometric mean of both positive control probes (technical variability) and housekeeping gene probes (assay input variability). Normalized data was uploaded to the interactive analysis platform Rosalind (https://rosalind.onramp.bio/), with a HyperScale architecture developed by OnRamp BioInformatics, Inc. (San Diego, Calif.) Read Distribution percentages, violin plots, identity heatmaps, and sample MDS plots were generated as part of the QC step. The limma R library1 was used to calculate fold changes and p-values and perform optional covariate correction. Clustering of genes for the final heatmap of differentially expressed genes was done using the PAM (Partitioning Around Medoids) method using the fpc R library2 that takes into consideration the direction and type of all signals on a pathway, the position, role and type of every gene, etc. Functional enrichment analysis of pathways, gene ontology, domain structure and other ontologies was performed using HOMER3. Several database sources were referenced for enrichment analysis, including Interpro4, NCBI5, MSigDB6,7, REACTOME8, WikiPathways9. Enrichment was calculated relative to a set of background genes relevant for the experiment.

[3] = Measurement of PF04418948 in plasma and brain (LC/MS/MS); details: aged (20-22 mo) mice, 2.5 mg/kg/d, 6 weeks, perfused brain
Procedure: Presence of PF04418948 was measured in aged (20-22 mo) mice treated with PF04418948 2.5 mg/kg/d for 6 weeks in plasma and perfused brain by LC/MS/MS at Quintara Discovery (Hayward, Calif., USA). In brief, brain samples were first homogenized in 2 volumes of ice-cold water, then further 2 fold diluted in blank plasma. An aliquot of 20 μL of each plasma sample or plasma diluted tissue homogenate was treated with 100 μL of acetonitrile containing internal standard (Terfenadine). The mixture was vortexed on a shaker for 15 minutes and subsequently centrifuged at 4000 rpm for 15 minutes. An aliquot of 70 μL of the extract was transferred to an injection plate and reconstituted in 70 μL of water for LC/MS/MS injection. Calibration standards and quality control samples were prepared by spiking the testing compound into blank plasma followed by processing with the samples.

[4] = aged mice, 2.5 mg/kg/d, 6 weeks

## COc1ccc2cc(OCC3(C(=O)O)CN(C(=O)c4ccc(F)cc4)C3)ccc2c1 [PF-04418948]
Aged mice [1]
  hippocampal memory function: restored hippocampal memory function as well as LTP to youthful levels
Aged mice [2]; aged (20-22 mo) mice, 2.5 mg/kg/d for 6 weeks
  expression of glycolytic and TCA genes in peritoneal macrophages: restores expression levels of glycolytic and TCA genes in aged mice
Aged mice [2]; [4]
  age-related upregulation of pro-inflammatory gene transcripts and downregulation of glycolytic and TCA gene transcripts in macrophages: reciprocally reversed
  top differentially regulated chemokine and cytokine transcripts in peritoneal macrophages: shifts expression towards young macrophage levels
Aged mice [2]; young (3-4 mo) and aged (20-22 mo) mice, 2.5 mg/kg/d, 6 weeks, 2.5 mg/kg/day
  transcriptome of peritoneal macrophages (clustering of 1449 genes, PCA): cluster with young mice treated with vehicle or PF-04418948; also recorded: significant shift away from vehicle-treated aged mice toward young macrophages
[3]
  brain level (whole brain lysates): not detected
